Data reported in ChEMBL document CHEMBL5131375, “Recent Developments in the Use of Kinase Inhibitors for Management of Viral Infections” (J Med Chem, 2022).

How the values were obtained:
in vitro [1] = conditions: human, huh-7
Hepatitis C virus [2] = experiment: microbe, parasite or virus in culture
Hepatitis C virus [3] = experiment: microbe, parasite or virus in culture; remark: listed apart in the source
Human alphaherpesvirus 1 [4] = experiment: Antiviral activity against HSV-1 in HFL1 cells incubated for 24 hrs; assay type: functional, organism-based; conditions: Human alphaherpesvirus 1, HFL1, 24 h
[5] = Cytotoxicity against HFL1 cells; assay type: toxicity, cell-based; conditions: human
Human alphaherpesvirus 1 [6] = experiment: microbe, parasite or virus in culture; assay type: functional, organism-based
SARS-CoV-2 [7] = experiment: microbe, parasite or virus in culture; assay type: functional, organism-based; conditions: Severe acute respiratory syndrome coronavirus 2
Vero C1008 = experiment: Cytotoxicity against African green monkey Vero E6 cells at 250 nM; assay type: toxicity, cell-based; conditions: chlorocebus sabaeus, vero c1008, 0.25 µM
[8] = Cytotoxicity against human A549 cells; assay type: toxicity, cell-based
[9] = target: Receptor tyrosine-protein kinase erbB-2 (Homo sapiens, UniProt P04626); experiment: Inhibition of HER2/ErbB-2 (unknown origin)
Influenza A virus [10] = experiment: Antiviral activity against influenza A virus infected in human A549 cells assessed as inhibition of viral replication at 10 uM relative to control; assay type: functional; design: scale not given: the % may be the effect or the level left
Influenza A virus [11] = experiment: microbe, parasite or virus in culture; assay type: functional, organism-based
Ebolavirus [12] = experiment: microbe, parasite or virus in culture; conditions: Orthoebolavirus
Ebolavirus [13] = experiment: microbe, parasite or virus in culture; conditions: Orthoebolavirus; remark: listed apart in the source
Marburgvirus [14] = experiment: microbe, parasite or virus in culture; assay type: functional, organism-based; conditions: Orthomarburgvirus
Marburgvirus [15] = experiment: microbe, parasite or virus in culture; conditions: Orthomarburgvirus
Lassa virus [16] = experiment: microbe, parasite or virus in culture; conditions: Mammarenavirus lassaense
Ebolavirus [17] = experiment: microbe, parasite or virus in culture; assay type: functional, organism-based; conditions: Orthoebolavirus
[18] = system: Vesicular stomatitis virus; experiment: microbe, parasite or virus in culture
Lassa virus [19] = experiment: microbe, parasite or virus in culture; conditions: Mammarenavirus lassaense; remark: listed apart in the source
in vitro [20] = conditions: chlorocebus sabaeus, vero
Lassa virus [21] = experiment: microbe, parasite or virus in culture; conditions: Mammarenavirus lassaense, A549
Ebolavirus [22] = experiment: microbe, parasite or virus in culture; conditions: Orthoebolavirus, Huh-7
Coxsackievirus B3 = experiment: microbe, parasite or virus in culture; conditions: Enterovirus B
in vitro [23] = conditions: human, hela
Human rhinovirus sp. = experiment: microbe, parasite or virus in culture
Hepatitis C virus [24] = experiment: microbe, parasite or virus in culture; conditions: subtype 1b
SARS-CoV-2 [25] = experiment: Antiviral activity against SARS-CoV-2 assessed as reduction of viral load at 400 to 800 nM; assay type: functional, Severe acute respiratory syndrome coronavirus 2; design: scale not given: the % may be the effect or the level left; conditions: dose 400-800 nM
SARS-CoV-2 [26] = experiment: Antiviral activity against SARS-CoV-2 assessed as reduction of viral load at 400 nM relative to control; assay type: functional, Severe acute respiratory syndrome coronavirus 2; design: scale not given: the % may be the effect or the level left
[27] = Cytotoxicity against osteoblast cells (unknown origin); assay type: toxicity, cell-based, Calvarial osteoblast
[28] = Cytotoxicity against liver spheroids (unknown origin); assay type: toxicity, tissue-based
[29] = target: T1, AP2-associated protein kinase 1 (Homo sapiens, UniProt Q2M2I8)
Influenza A virus [30] = experiment: microbe, parasite or virus in culture; assay type: functional, organism-based; conditions: H1N1pdm09
Influenza A virus [31] = experiment: Antiviral activity against influenza A/Regensburg/D6/2009 virus; assay type: functional, organism-based
Janus Kinase (JAK) = Janus Kinase (JAK) (Homo sapiens, UniProt P52333+P23458+O60674+P29597); assay type: protein assay
dengue virus type 3 = experiment: microbe, parasite or virus in culture; assay type: functional, organism-based
dengue virus type 1 = experiment: microbe, parasite or virus in culture; assay type: functional, organism-based
dengue virus type 4 = experiment: microbe, parasite or virus in culture; assay type: functional, organism-based
dengue virus type 2 = experiment: microbe, parasite or virus in culture; assay type: functional, organism-based
in vitro [32] = conditions: human
Dengue virus = experiment: microbe, parasite or virus in culture
[33] = target: T1, AP2-associated protein kinase 1; remark: listed apart in the source
[34] = target: Tyrosine-protein kinase JAK2 (Homo sapiens, UniProt O60674)
Influenza A virus [35] = experiment: microbe, parasite or virus in culture; assay type: functional, organism-based; conditions: pdmH1N1
Influenza A virus [36] = experiment: Antiviral activity against influenza A virus HN79; assay type: functional, organism-based
Influenza A virus [37] = experiment: microbe, parasite or virus in culture; assay type: functional, organism-based; conditions: H3N2

T1 sequence (Q2M2I8 whole entry): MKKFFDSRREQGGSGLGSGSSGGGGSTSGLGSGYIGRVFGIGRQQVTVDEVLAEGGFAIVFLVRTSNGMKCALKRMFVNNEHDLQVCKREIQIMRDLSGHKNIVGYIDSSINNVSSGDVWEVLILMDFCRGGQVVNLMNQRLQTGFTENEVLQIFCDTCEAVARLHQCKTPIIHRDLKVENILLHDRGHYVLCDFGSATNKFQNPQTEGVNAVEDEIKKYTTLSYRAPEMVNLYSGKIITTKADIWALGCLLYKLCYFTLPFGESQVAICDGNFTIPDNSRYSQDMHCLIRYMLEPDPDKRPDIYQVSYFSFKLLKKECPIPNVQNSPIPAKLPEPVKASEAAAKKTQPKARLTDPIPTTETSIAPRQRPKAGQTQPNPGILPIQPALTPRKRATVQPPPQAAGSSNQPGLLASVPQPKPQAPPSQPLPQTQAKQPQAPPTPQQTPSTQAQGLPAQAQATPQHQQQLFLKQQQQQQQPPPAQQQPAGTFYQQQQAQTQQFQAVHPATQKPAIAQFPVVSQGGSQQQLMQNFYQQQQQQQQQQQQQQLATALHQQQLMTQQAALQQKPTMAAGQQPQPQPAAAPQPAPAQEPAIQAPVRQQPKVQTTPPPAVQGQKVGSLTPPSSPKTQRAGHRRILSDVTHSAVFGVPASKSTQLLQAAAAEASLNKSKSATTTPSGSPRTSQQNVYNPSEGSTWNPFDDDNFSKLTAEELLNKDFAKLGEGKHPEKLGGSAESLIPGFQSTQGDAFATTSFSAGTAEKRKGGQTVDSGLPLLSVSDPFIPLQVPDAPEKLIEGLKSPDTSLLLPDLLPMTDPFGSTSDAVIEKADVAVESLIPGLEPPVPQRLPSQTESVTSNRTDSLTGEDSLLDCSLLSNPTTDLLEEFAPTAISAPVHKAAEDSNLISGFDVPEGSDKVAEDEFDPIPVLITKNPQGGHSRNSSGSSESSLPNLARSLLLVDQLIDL
Chain of Tyrosine-protein kinase JAK2 (O60674 whole entry): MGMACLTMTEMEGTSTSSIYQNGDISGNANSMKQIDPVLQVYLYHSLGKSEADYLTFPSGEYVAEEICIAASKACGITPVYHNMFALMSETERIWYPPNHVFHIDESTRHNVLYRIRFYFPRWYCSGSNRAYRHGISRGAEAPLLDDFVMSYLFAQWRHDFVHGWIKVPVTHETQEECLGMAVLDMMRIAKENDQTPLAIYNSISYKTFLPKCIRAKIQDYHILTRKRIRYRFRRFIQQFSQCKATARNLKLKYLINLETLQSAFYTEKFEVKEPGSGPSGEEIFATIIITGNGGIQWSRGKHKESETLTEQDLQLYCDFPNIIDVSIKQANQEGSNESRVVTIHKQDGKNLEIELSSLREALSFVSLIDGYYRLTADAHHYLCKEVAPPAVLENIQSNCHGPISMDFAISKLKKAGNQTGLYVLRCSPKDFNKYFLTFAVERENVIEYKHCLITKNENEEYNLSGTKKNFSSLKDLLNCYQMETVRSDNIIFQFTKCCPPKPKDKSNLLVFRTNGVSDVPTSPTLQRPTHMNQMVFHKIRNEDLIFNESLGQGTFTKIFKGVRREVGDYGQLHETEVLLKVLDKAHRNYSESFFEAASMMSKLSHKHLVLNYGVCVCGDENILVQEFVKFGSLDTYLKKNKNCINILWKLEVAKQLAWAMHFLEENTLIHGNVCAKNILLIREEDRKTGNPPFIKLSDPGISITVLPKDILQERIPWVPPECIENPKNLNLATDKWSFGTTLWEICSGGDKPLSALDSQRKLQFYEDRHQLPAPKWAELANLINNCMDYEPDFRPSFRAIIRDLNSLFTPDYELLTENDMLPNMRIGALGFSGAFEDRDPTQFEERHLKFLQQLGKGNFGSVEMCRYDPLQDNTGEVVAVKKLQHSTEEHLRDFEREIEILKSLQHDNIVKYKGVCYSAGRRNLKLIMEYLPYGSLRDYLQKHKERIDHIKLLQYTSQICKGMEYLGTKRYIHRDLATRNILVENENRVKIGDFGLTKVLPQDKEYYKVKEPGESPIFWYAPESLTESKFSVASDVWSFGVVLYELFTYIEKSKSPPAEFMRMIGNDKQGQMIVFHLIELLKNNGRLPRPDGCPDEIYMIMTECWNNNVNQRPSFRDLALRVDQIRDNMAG
Chain of Receptor tyrosine-protein kinase erbB-2 (P04626 whole entry): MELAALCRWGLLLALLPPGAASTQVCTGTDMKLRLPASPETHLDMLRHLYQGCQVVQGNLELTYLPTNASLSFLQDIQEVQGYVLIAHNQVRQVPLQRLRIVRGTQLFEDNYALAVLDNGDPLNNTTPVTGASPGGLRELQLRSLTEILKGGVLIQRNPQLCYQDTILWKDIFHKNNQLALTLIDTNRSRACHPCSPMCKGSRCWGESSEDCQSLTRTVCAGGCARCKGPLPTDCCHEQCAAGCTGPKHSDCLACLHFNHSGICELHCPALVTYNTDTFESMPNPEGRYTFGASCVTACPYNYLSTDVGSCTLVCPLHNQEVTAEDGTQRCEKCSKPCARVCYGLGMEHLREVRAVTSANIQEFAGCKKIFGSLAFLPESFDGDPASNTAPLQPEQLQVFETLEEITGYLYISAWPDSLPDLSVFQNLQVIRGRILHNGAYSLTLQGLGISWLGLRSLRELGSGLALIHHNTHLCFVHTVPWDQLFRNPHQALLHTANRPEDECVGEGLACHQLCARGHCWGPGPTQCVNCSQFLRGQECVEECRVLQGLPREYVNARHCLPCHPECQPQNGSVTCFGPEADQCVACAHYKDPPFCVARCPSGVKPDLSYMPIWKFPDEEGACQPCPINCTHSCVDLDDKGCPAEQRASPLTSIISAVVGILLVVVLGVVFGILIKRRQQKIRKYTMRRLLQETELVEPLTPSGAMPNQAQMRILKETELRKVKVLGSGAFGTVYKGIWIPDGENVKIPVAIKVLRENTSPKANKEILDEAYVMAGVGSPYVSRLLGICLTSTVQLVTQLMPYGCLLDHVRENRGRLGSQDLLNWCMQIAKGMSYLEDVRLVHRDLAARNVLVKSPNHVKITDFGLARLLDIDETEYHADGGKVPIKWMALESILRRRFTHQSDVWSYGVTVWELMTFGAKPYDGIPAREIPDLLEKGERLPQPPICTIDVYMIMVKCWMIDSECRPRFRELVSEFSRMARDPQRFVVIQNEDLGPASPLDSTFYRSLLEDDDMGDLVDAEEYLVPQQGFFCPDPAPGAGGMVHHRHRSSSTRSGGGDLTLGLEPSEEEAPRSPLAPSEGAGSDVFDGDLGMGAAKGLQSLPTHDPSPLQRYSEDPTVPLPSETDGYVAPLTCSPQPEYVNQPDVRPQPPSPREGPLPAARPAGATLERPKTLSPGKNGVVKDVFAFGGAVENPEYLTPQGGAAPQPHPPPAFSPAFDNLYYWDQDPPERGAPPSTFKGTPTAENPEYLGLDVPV

Cc1nc2c(NCc3cccc(S(C)(=O)=O)c3)nccn2c1-c1ccc(O)c(F)c1
CC50 (in vitro [1]): > 30 µM | EC50 (Hepatitis C virus [2]): 0.1 µM | EC50 (Hepatitis C virus [3]): 0.1 µM

Cc1cc(-c2cc(C(=O)Nc3nc(CN4CCCC(C)C4)cs3)c3c(C)noc3n2)c(C)o1 (stereo unspecified)
IC50 (Human alphaherpesvirus 1 [4]): 29 µM | CC50 [5]: 159 µM | EC50 (Human alphaherpesvirus 1 [6]): 32 µM

CNC(=O)c1cccc(-c2ccc3c(N4CCOC[C@@H]4C)nc(N4CCOC[C@@H]4C)nc3n2)c1 [VISTUSERTIB]
EC50 (SARS-CoV-2 [7]): 0.0159 µM | Activity (Vero C1008): Non-Toxic

O=C(NOC[C@H](O)CO)c1ccc(F)c(F)c1Nc1ccc(I)cc1F [MIRDAMETINIB]
CC50 [8]: > 100 µM

CC(C)(C)c1cc(/C=C(\C#N)C(N)=S)cc(C(C)(C)C)c1O [TYRPHOSTIN AG 879]
IC50 [9]: 1 µM | Activity (Influenza A virus [10]): 50% | CC50 [8]: > 81 µM | IC50 (Influenza A virus [11]): 10 µM

CN1CCC(Nc2ncc3ncnc(Nc4ccc(F)c(Cl)c4)c3n2)CC1 [FALNIDAMOL]
EC50 (Ebolavirus [12]): 1.2 µM | EC50 (Ebolavirus [13]): 1.6 µM | EC50 (Marburgvirus [14]): 1.8 µM | EC50 (Marburgvirus [15]): 1.8 µM | EC50 (Lassa virus [16]): 3.2 µM | EC50 (Ebolavirus [17]): 1.1 µM | EC50 [18]: 30.9 µM | EC50 (Lassa virus [19]): 7.5 µM | CC50 (in vitro [20]): 29.1 µM | EC50 (Lassa virus [21]): 3.2 µM | EC50 (Ebolavirus [22]): 1.1 µM

CCNS(=O)(=O)c1cc(-c2c(C)nc3c(NCc4ccnc(CC)c4)cc(Cl)nn23)ccc1OO
EC50 (Coxsackievirus B3): 0.058 µM | CC50 (in vitro [23]): 18.3 µM | EC50 (Human rhinovirus sp.): 0.075 µM | EC50 (Hepatitis C virus [24]): 0.029 µM

CCS(=O)(=O)N1CC(CC#N)(n2cc(-c3ncnc4[nH]ccc34)cn2)C1 [BARICITINIB]
Activity (SARS-CoV-2 [25]): 30% | Activity (SARS-CoV-2 [26]): 30% | CC50 [27]: > 50 µM | CC50 [28]: > 5 µM | IC50 [29]: 0.017 µM

Cn1cnc2c(F)c(Nc3ccc(Br)cc3Cl)c(C(=O)NOCCO)cc21 [SELUMETINIB]
EC50 (Influenza A virus [30]): 0.75 µM | CC50 [8]: > 100 µM | EC50 (Influenza A virus [31]): 0.75 µM

N#CCC1CCN(c2nc(Nc3ccc(N4CCC(O)CC4)cc3)c3c(=O)[nH]ncc3n2)CC1 [GUSACITINIB]
IC50 (Janus Kinase (JAK)): 0.005 µM

Cc1c(NC(=O)c2cccc(NC(=O)C(C)NC(=O)c3ccco3)c2)c(=O)n(-c2ccccc2)n1C (stereo unspecified)
IC50 (Human alphaherpesvirus 1 [4]): 29 µM | CC50 [5]: 2040 µM | EC50 (Human alphaherpesvirus 1 [6]): 64 µM

COc1ccc(CC(N)c2csc(Nc3ncccn3)n2)cc1 (stereo unspecified)
EC50 (dengue virus type 3): 2.6 µM | EC50 (dengue virus type 1): 0.9 µM | EC50 (dengue virus type 4): 5 µM | EC50 (dengue virus type 2): 7.6 µM | CC50 (in vitro [32]; Huh-7.5.1 cells): > 100 µM

COc1cc(F)c(F)c(Nc2ccc(I)cc2F)c1NS(=O)(=O)C1(C[C@H](O)CO)CC1 [REFAMETINIB]
IC50 (Influenza A virus [30]): 0.06 µM | CC50 [8]: > 100 µM

COc1ccc(-c2ccc3nsc(N4C[C@@H](C)O[C@@H](C)C4)c3n2)cc1OC
EC50 (Dengue virus): 1 µM | CC50 (in vitro [32]; huh7.5.1): > 10 µM

CC[C@@H]1CN(C(=O)NCC(F)(F)F)C[C@@H]1c1cnc2cnc3[nH]ccc3n12 [UPADACITINIB]
Kd [33]: 9.9 µM

C[C@H](Nc1cc(-c2cnn(C)c2)cc(Nc2cnccn2)n1)c1ccc(F)cc1 [NS-018]
IC50 [34]: 0.00027 µM

Cc1ccc([N+](=O)[O-])cc1S(=O)(=O)N(C)/N=C/c1cnc2ccc(Br)cn12
IC50 (Influenza A virus [35]): 0.04 µM | IC50 (Influenza A virus [36]): 0.04 µM | CC50 [8]: > 100 µM | IC50 (Influenza A virus [11]): 0.04 µM | IC50 (Influenza A virus [37]): 0.04 µM

Cc1cc(Nc2cc(CN3CCOCC3)c3nc(C)c(Cc4ccc(Cl)cc4F)n3n2)n[nH]1 [GANDOTINIB]
IC50 [34]: 0.003 µM

CC(=O)NCCNc1cc(Cl)nn2c(-c3cccc(S(=O)(=O)N(C)C)c3)c(C)nc12
EC50 (Coxsackievirus B3): 0.14 µM | CC50 (in vitro [23]): > 50 µM | EC50 (Human rhinovirus sp.): 1.03 µM | EC50 (Hepatitis C virus [24]): 0.08 µM
